Experimental data: the supplement of paper PMC11061612

How the values were obtained:
Assay in all cases: combination Emax (second highest fraction inhibited in the dose matrix, 72 h); higher = more inhibition; extreme values may be limits of the assay
[1] = test system: OVTOKO (Ovarian Carcinoma)
Method in brief: (§1)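 Bliss excess equals the observed combination effect minus the expected value EA + EB − EA·EB, where EA and EB are the effects of each agent alone. Combination Emax is the second-highest inhibition within the matrix. Inhibition was scaled from CellTiter-Glo 2.0 luminescence, with 0 set by vehicle wells and 1 by blank wells, after 72 hours of two-drug dosing of cells plated in 1536-well plates.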

[2] = test system: SNU-175 (Colorectal Carcinoma)
Method in brief: as §1

[3] = test system: NCI-H810 (Non-Small Cell Lung Carcinoma)
Method in brief: as §1

[4] = test system: SK-MM-2 (Plasma Cell Myeloma)
Method in brief: as §1

Row | Structure (SMILES) | combination Emax [1] | combination Emax [2] | combination Emax [3] | combination Emax [4]
1 | CN(C)CCCOc1ccc(-c2ccc3ncc4c(c3c2)n(C2CCOCC2)c(=O)n4C)cn1 [AZD0156] + C=CCn1c(=O)c2cnc(Nc3ccc(N4CCN(C)CC4)cc3)nc2n1-c1cccc(C(C)(C)O)n1 [AZD1775] (first compound max 1 µM, partner max 1 µM) | 0.542 | 0.405 | 0.889 | 0.705
2 | CN(C)CCCOc1ccc(-c2ccc3ncc4c(c3c2)n(C2CCOCC2)c(=O)n4C)cn1 [AZD0156] + CCN(CCO)CCCOc1ccc2c(Nc3cc(CC(=O)Nc4cccc(F)c4)[nH]n3)ncnc2c1 [AZD2811] (first compound max 1 µM, 7x7, partner max 1 µM) | 0.113 | 0.604 | 0.542 | 0.248
3 | CN(C)CCCOc1ccc(-c2ccc3ncc4c(c3c2)n(C2CCOCC2)c(=O)n4C)cn1 [AZD0156] + C[C@@H]1COCCN1C2=NC(=NC(=C2)C3(CC3)[S@](=N)(=O)C)C4=C5C=CNC5=NC=C4 [AZD6738] (first compound max 1 µM, 7x7, partner max 10 µM) | 0.471 | 0.49 | 0.762 | 0.625
4 | C=CCn1c(=O)c2cnc(Nc3ccc(N4CCN(C)CC4)cc3)nc2n1-c1cccc(C(C)(C)O)n1 [AZD1775] + C[C@@H]1COCCN1C2=NC(=NC(=C2)C3(CC3)[S@](=N)(=O)C)C4=C5C=CNC5=NC=C4 [AZD6738] (first compound max 1 µM, partner max 10 µM) | 0.56 | 0.702 | 0.975 | 0.705
5 | C=CCn1c(=O)c2cnc(Nc3ccc(N4CCN(C)CC4)cc3)nc2n1-c1cccc(C(C)(C)O)n1 [AZD1775] + O=C(c1cc(Cc2n[nH]c(=O)c3ccccc23)ccc1F)N1CCN(C(=O)C2CC2)CC1 [Olaparib] (first compound max 1 µM, partner max 10 µM) | 0.496 | 0.447 | 0.926 | 0.705
6 | CCN(CCO)CCCOc1ccc2c(Nc3cc(CC(=O)Nc4cccc(F)c4)[nH]n3)ncnc2c1 [AZD2811] + C=CCn1c(=O)c2cnc(Nc3ccc(N4CCN(C)CC4)cc3)nc2n1-c1cccc(C(C)(C)O)n1 [AZD1775] (first compound max 1 µM, partner max 1 µM) | 0.419 | 0.637 | 0.886 | 0.644
7 | CCN(CCO)CCCOc1ccc2c(Nc3cc(CC(=O)Nc4cccc(F)c4)[nH]n3)ncnc2c1 [AZD2811] + C[C@@H]1COCCN1C2=NC(=NC(=C2)C3(CC3)[S@](=N)(=O)C)C4=C5C=CNC5=NC=C4 [AZD6738] (first compound max 1 µM, 7x7, partner max 10 µM) | 0.37 | 0.578 | 0.738 | 0.533
8 | CCN(CCO)CCCOc1ccc2c(Nc3cc(CC(=O)Nc4cccc(F)c4)[nH]n3)ncnc2c1 [AZD2811] + O=C(c1cc(Cc2n[nH]c(=O)c3ccccc23)ccc1F)N1CCN(C(=O)C2CC2)CC1 [Olaparib] (first compound max 1 µM, 7x7, partner max 10 µM) | 0.223 | 0.611 | 0.646 | 0.232
9 | CN(CCO)CC[C@H](CSc1ccccc1)Nc1ccc(S(=O)(=O)NC(=O)c2ccc(N3CCC([C@@H](O)c4ccccc4-c4ccc(Cl)cc4)CC3)cc2)cc1S(=O)(=O)C(F)(F)F [AZD4320] + C1CN(CCC1(C(=O)N[C@@H](CCO)C2=CC=C(C=C2)Cl)N)C3=NC=NC4=C3C=CN4 [Capivasertib] (first compound max 1 µM, 7x7, partner max 3 µM) | 0.413 | 0.501 | 0.482 | 1
10 | CN(CCO)CC[C@H](CSc1ccccc1)Nc1ccc(S(=O)(=O)NC(=O)c2ccc(N3CCC([C@@H](O)c4ccccc4-c4ccc(Cl)cc4)CC3)cc2)cc1S(=O)(=O)C(F)(F)F [AZD4320] + C=CCn1c(=O)c2cnc(Nc3ccc(N4CCN(C)CC4)cc3)nc2n1-c1cccc(C(C)(C)O)n1 [AZD1775] (first compound max 1 µM, partner max 1 µM) | 0.621 | 0.717 | 0.954 | 1
11 | CN(CCO)CC[C@H](CSc1ccccc1)Nc1ccc(S(=O)(=O)NC(=O)c2ccc(N3CCC([C@@H](O)c4ccccc4-c4ccc(Cl)cc4)CC3)cc2)cc1S(=O)(=O)C(F)(F)F [AZD4320] + CCN(CCO)CCCOc1ccc2c(Nc3cc(CC(=O)Nc4cccc(F)c4)[nH]n3)ncnc2c1 [AZD2811] (first compound max 1 µM, 7x7, partner max 1 µM) | 0.166 | 0.996 | 0.894 | 1
12 | CN(CCO)CC[C@H](CSc1ccccc1)Nc1ccc(S(=O)(=O)NC(=O)c2ccc(N3CCC([C@@H](O)c4ccccc4-c4ccc(Cl)cc4)CC3)cc2)cc1S(=O)(=O)C(F)(F)F [AZD4320] + CN(C)CCCOc1ccc(-c2ccc3ncc4c(c3c2)n(C2CCOCC2)c(=O)n4C)cn1 [AZD0156] (first compound max 1 µM, 7x7, partner max 1 µM) | 0.25 | 0.467 | 0.453 | 1
13 | CN(CCO)CC[C@H](CSc1ccccc1)Nc1ccc(S(=O)(=O)NC(=O)c2ccc(N3CCC([C@@H](O)c4ccccc4-c4ccc(Cl)cc4)CC3)cc2)cc1S(=O)(=O)C(F)(F)F [AZD4320] + C[C@@H]1COCCN1C2=NC(=NC(=C2)C3(CC3)[S@](=N)(=O)C)C4=C5C=CNC5=NC=C4 [AZD6738] (first compound max 1 µM, 7x7, partner max 10 µM) | 0.54 | 0.936 | 0.86 | 1
14 | CN(CCO)CC[C@H](CSc1ccccc1)Nc1ccc(S(=O)(=O)NC(=O)c2ccc(N3CCC([C@@H](O)c4ccccc4-c4ccc(Cl)cc4)CC3)cc2)cc1S(=O)(=O)C(F)(F)F [AZD4320] + C[C@@H](Nc1cc(F)cc(F)c1)c1cc(C(=O)N(C)C)cc2c(=O)cc(N3CCOCC3)oc12 [AZD8186] (first compound max 1 µM, 7x7, partner max 3 µM) |  | 0.908 | 0.592 | 1
15 | CN(CCO)CC[C@H](CSc1ccccc1)Nc1ccc(S(=O)(=O)NC(=O)c2ccc(N3CCC([C@@H](O)c4ccccc4-c4ccc(Cl)cc4)CC3)cc2)cc1S(=O)(=O)C(F)(F)F [AZD4320] + Cc1cc2ncnn2cc1Nc1ncc2c(n1)n(C1CCOCC1)c(=O)n2C [AZD7648] (first compound max 1 µM, 7x7, partner max 10 µM) | 0.361 | 0.446 | 0.43 | 1
16 | CN(CCO)CC[C@H](CSc1ccccc1)Nc1ccc(S(=O)(=O)NC(=O)c2ccc(N3CCC([C@@H](O)c4ccccc4-c4ccc(Cl)cc4)CC3)cc2)cc1S(=O)(=O)C(F)(F)F [AZD4320] + Cn1cnc2c(F)c(Nc3ccc(Br)cc3Cl)c(C(=O)NOCCO)cc21 [Selumetinib] (first compound max 1 µM, 7x7, partner max 3 µM) | 0.318 | 0.865 | 0.615 | 1
17 | Cc1c2c(nn1C)CSCc1cc(n(C)n1)CSc1cc(c3ccccc3c1)OCCCc1c(C(=O)O)n(C)c3c-2c(Cl)ccc13 [AZD5991] + C1CN(CCC1(C(=O)N[C@@H](CCO)C2=CC=C(C=C2)Cl)N)C3=NC=NC4=C3C=CN4 [Capivasertib] (first compound max 1 µM, 7x7, partner max 3 µM) | 0.367 | 0.492 | 0.286 | 0.325
18 | Cc1c2c(nn1C)CSCc1cc(n(C)n1)CSc1cc(c3ccccc3c1)OCCCc1c(C(=O)O)n(C)c3c-2c(Cl)ccc13 [AZD5991] + C=CCn1c(=O)c2cnc(Nc3ccc(N4CCN(C)CC4)cc3)nc2n1-c1cccc(C(C)(C)O)n1 [AZD1775] (first compound max 1 µM, partner max 1 µM) | 0.618 | 0.868 | 0.949 | 0.707
19 | Cc1c2c(nn1C)CSCc1cc(n(C)n1)CSc1cc(c3ccccc3c1)OCCCc1c(C(=O)O)n(C)c3c-2c(Cl)ccc13 [AZD5991] + CC1(C)CCC(CN2CCN(c3ccc(C(=O)NS(=O)(=O)c4ccc(NCC5CCOCC5)c([N+](=O)[O-])c4)c(Oc4cnc5[nH]ccc5c4)c3)CC2)=C(c2ccc(Cl)cc2)C1 [Venetoclax] (first compound max 1 µM, 7x7, partner max 1 µM) | 0.198 | 0.926 | 0.533 | 1
20 | Cc1c2c(nn1C)CSCc1cc(n(C)n1)CSc1cc(c3ccccc3c1)OCCCc1c(C(=O)O)n(C)c3c-2c(Cl)ccc13 [AZD5991] + CCN(CCO)CCCOc1ccc2c(Nc3cc(CC(=O)Nc4cccc(F)c4)[nH]n3)ncnc2c1 [AZD2811] (first compound max 1 µM, 7x7, partner max 1 µM) | 0.241 | 0.96 | 0.981 | 0.487
21 | Cc1c2c(nn1C)CSCc1cc(n(C)n1)CSc1cc(c3ccccc3c1)OCCCc1c(C(=O)O)n(C)c3c-2c(Cl)ccc13 [AZD5991] + CN(C)CCCOc1ccc(-c2ccc3ncc4c(c3c2)n(C2CCOCC2)c(=O)n4C)cn1 [AZD0156] (first compound max 1 µM, 7x7, partner max 1 µM) | 0.319 | 0.458 | 0.474 | 0.355
22 | Cc1c2c(nn1C)CSCc1cc(n(C)n1)CSc1cc(c3ccccc3c1)OCCCc1c(C(=O)O)n(C)c3c-2c(Cl)ccc13 [AZD5991] + Cn1cnc2c(F)c(Nc3ccc(Br)cc3Cl)c(C(=O)NOCCO)cc21 [Selumetinib] (first compound max 1 µM, 7x7, partner max 3 µM) |  | 0.714 | 0.322 | 0.356
23 | CCc1c2c(nc3ccc(O)cc13)-c1cc3c(c(=O)n1C2)COC(=O)[C@]3(O)CC [SN-38] + O=C(c1cc(Cc2n[nH]c(=O)c3ccccc23)ccc1F)N1CCN(C(=O)C2CC2)CC1 [Olaparib] (first compound max 0.3 µM, 7x7, partner max 10 µM) |  | 0.471 | 0.557 | 0.89
24 | C[C@@H](c1ccc2nccn2c1)n1nnc2ncc(-c3cnn(C)c3)nc21 [Savolitinib] + CN(CC[C@H](CSC1=CC=CC=C1)NC2=C(C=C(C=C2)S(=O)(=O)NC(=O)C3=CC=C(C=C3)N4CCC(CC4)[C@H](C5=CC=CC=C5C6=CC=C(C=C6)Cl)O)S(=O)(=O)C(F)(F)F)CCO [AZD4320] (first compound max 1 µM, 7x7, partner max 1 µM) | 0.274 | 0.349 |  | 
